# Reference: ChEMBL document CHEMBL4610081, “Anti-inflammatory Metabolites from Chaetomium nigricolor” (J Nat Prod, 2020)
# Activity calls are given as the source filed them. The calls are words filed in the database; no cut-off is given here.
# Experiments:
# RAW264.7 [1] = assay: Trans-suppression of NFkappaB in mouse RAW264.7 cells assessed as LPS-induced nuclear-p65 level at 2.5 uM preincubated for 3 hrs followed by LPS-stimulation and measured after 1 hr by Western blot analysis (reference value: 3.3); format: cell-based
# RAW264.7 [2] = assay: Trans-suppression of NFkappaB in mouse RAW264.7 cells assessed as LPS-induced nuclear-p65 level at 5 uM preincubated for 3 hrs followed by LPS-stimulation and measured after 1 hr by Western blot analysis (reference value: 3.3); format: cell-based
# RAW264.7 [3] = assay: Trans-suppression of NFkappaB in mouse RAW264.7 cells assessed as LPS-induced nuclear-p65 level at 10 uM preincubated for 3 hrs followed by LPS-stimulation and measured after 1 hr by Western blot analysis (reference value: 3.3); format: cell-based
# RAW264.7 [4] = assay: Trans-suppression of NFkappaB in mouse RAW264.7 cells assessed as LPS-induced nuclear-p50 level at 2.5 uM preincubated for 3 hrs followed by LPS-stimulation and measured after 1 hr by Western blot analysis (reference value: 3.2); format: cell-based
# RAW264.7 [5] = assay: Trans-suppression of NFkappaB in mouse RAW264.7 cells assessed as LPS-induced nuclear-p50 level at 5 uM preincubated for 3 hrs followed by LPS-stimulation and measured after 1 hr by Western blot analysis (reference value: 3.2); format: cell-based
# RAW264.7 [6] = assay: Trans-suppression of NFkappaB in mouse RAW264.7 cells assessed as LPS-induced nuclear-p50 level at 10 uM preincubated for 3 hrs followed by LPS-stimulation and measured after 1 hr by Western blot analysis (reference value: 3.2); format: cell-based
# RAW264.7 [7] = assay: Trans-suppression of NFkappaB in mouse RAW264.7 cells assessed as reduction in LPS-induced DNA binding at 2.5 to 10 uM preincubated for 3 hrs followed by LPS-stimulation and measured after 1 hr by TransAM assay; format: cell-based
# RAW264.7 [8] = assay: Inhibition of LPS-induced ERK phosphorylation in mouse RAW264.7 cell at 2.5 uM preincubated for 3 hrs followed by LPS-stimulation and measured after 1 hr by Western blot analysis (reference value: 6.92); format: cell-based
# RAW264.7 [9] = assay: Inhibition of LPS-induced ERK phosphorylation in mouse RAW264.7 cell at 5 uM preincubated for 3 hrs followed by LPS-stimulation and measured after 1 hr by Western blot analysis (reference value: 6.92); format: cell-based
# RAW264.7 [10] = assay: Inhibition of LPS-induced ERK phosphorylation in mouse RAW264.7 cell at 10 uM preincubated for 3 hrs followed by LPS-stimulation and measured after 1 hr by Western blot analysis (reference value: 6.92); format: cell-based
# RAW264.7 [11] = assay: Inhibition of LPS-induced ERK protein expression in mouse RAW264.7 cell at 2.5 uM preincubated for 3 hrs followed by LPS-stimulation and measured after 1 hr by Western blot analysis (reference value: 1.13); format: functional
# RAW264.7 [12] = assay: Inhibition of LPS-induced ERK protein expression in mouse RAW264.7 cell at 5 uM preincubated for 3 hrs followed by LPS-stimulation and measured after 1 hr by Western blot analysis (reference value: 1.13); format: functional
# RAW264.7 [13] = assay: Inhibition of LPS-induced ERK protein expression in mouse RAW264.7 cell at 10 uM preincubated for 3 hrs followed by LPS-stimulation and measured after 1 hr by Western blot analysis (reference value: 1.13); format: functional
# RAW264.7 [14] = assay: Inhibition of LPS-induced JNK phosphorylation in mouse RAW264.7 cell at 2.5 uM preincubated for 3 hrs followed by LPS-stimulation and measured after 1 hr by Western blot analysis (reference value: 8.88); format: cell-based
# RAW264.7 [15] = assay: Inhibition of LPS-induced JNK phosphorylation in mouse RAW264.7 cell at 5 uM preincubated for 3 hrs followed by LPS-stimulation and measured after 1 hr by Western blot analysis (reference value: 8.88); format: cell-based
# RAW264.7 [16] = assay: Inhibition of LPS-induced JNK phosphorylation in mouse RAW264.7 cell at 10 uM preincubated for 3 hrs followed by LPS-stimulation and measured after 1 hr by Western blot analysis (reference value: 8.88); format: cell-based
# RAW264.7 [17] = assay: Inhibition of LPS-induced JNK protein expression in mouse RAW264.7 cell at 2.5 uM preincubated for 3 hrs followed by LPS-stimulation and measured after 1 hr by Western blot analysis (reference value: 1.21); format: functional
# RAW264.7 [18] = assay: Inhibition of LPS-induced JNK protein expression in mouse RAW264.7 cell at 5 uM preincubated for 3 hrs followed by LPS-stimulation and measured after 1 hr by Western blot analysis (reference value: 1.21); format: functional
# RAW264.7 [19] = assay: Inhibition of LPS-induced JNK protein expression in mouse RAW264.7 cell at 10 uM preincubated for 3 hrs followed by LPS-stimulation and measured after 1 hr by Western blot analysis (reference value: 1.21); format: functional
# [20] = target: T1, MAP kinase p38 (Mus musculus) (UniProt P47811+O08911+Q9WUI1+Q9Z1B7); assay: Inhibition of LPS-induced p38 MAPK phosphorylation in mouse RAW264.7 cell at 2.5 uM preincubated for 3 hrs followed by LPS-stimulation and measured after 1 hr by Western blot analysis (reference value: 5.59); format: cell-based
# [21] = target: T1, MAP kinase p38 (Mus musculus); assay: Inhibition of LPS-induced p38 MAPK phosphorylation in mouse RAW264.7 cell at 5 uM preincubated for 3 hrs followed by LPS-stimulation and measured after 1 hr by Western blot analysis (reference value: 5.59); format: cell-based
# [22] = target: T1, MAP kinase p38 (Mus musculus); assay: Inhibition of LPS-induced p38 MAPK phosphorylation in mouse RAW264.7 cell at 10 uM preincubated for 3 hrs followed by LPS-stimulation and measured after 1 hr by Western blot analysis (reference value: 5.59); format: cell-based
# RAW264.7 [23] = assay: Inhibition of LPS-induced p38 MAPK protein expression in mouse RAW264.7 cell at 2.5 uM preincubated for 3 hrs followed by LPS-stimulation and measured after 1 hr by Western blot analysis (reference value: 1.1); format: functional
# RAW264.7 [24] = assay: Inhibition of LPS-induced p38 MAPK protein expression in mouse RAW264.7 cell at 5 uM preincubated for 3 hrs followed by LPS-stimulation and measured after 1 hr by Western blot analysis (reference value: 1.1); format: functional
# RAW264.7 [25] = assay: Inhibition of LPS-induced p38 MAPK protein expression in mouse RAW264.7 cell at 10 uM preincubated for 3 hrs followed by LPS-stimulation and measured after 1 hr by Western blot analysis (reference value: 1.1); format: functional
# RAW264.7 [26] = assay: Inhibition of LPS-induced JNK phosphorylation in mouse RAW264.7 cell preincubated for 3 hrs followed by LPS-stimulation and measured after 1 hr by Western blot analysis; format: cell-based
smiles,measurement,setting,value
COc1cc(OC)c2c(O)c3c(=O)cc(C)oc3c(-c3c(O)cc4cc(O)c5c(=O)cc(C)oc5c4c3OC)c2c1 (atropisomer aS) [ASPERPYRONE A],fold change (FC),RAW264.7 [1],3.28
same,fold change (FC),RAW264.7 [2],2.57
same,fold change (FC),RAW264.7 [3],1.54
same,fold change (FC),RAW264.7 [4],1.99
same,fold change (FC),RAW264.7 [5],1.28
same,fold change (FC),RAW264.7 [6],0.89
same,Activity,RAW264.7 [7],Active
same,fold change (FC),RAW264.7 [8],7.21
same,fold change (FC),RAW264.7 [9],7.31
same,fold change (FC),RAW264.7 [10],7.03
same,fold change (FC),RAW264.7 [11],1.08
same,fold change (FC),RAW264.7 [12],1.09
same,fold change (FC),RAW264.7 [13],1.1
same,fold change (FC),RAW264.7 [14],8.73
same,fold change (FC),RAW264.7 [15],4.02
same,fold change (FC),RAW264.7 [16],3.08
same,fold change (FC),RAW264.7 [17],1.12
same,fold change (FC),RAW264.7 [18],1.16
same,fold change (FC),RAW264.7 [19],1.19
same,fold change (FC),[20],5.63
same,fold change (FC),[21],5.63
same,fold change (FC),[22],5.66
same,fold change (FC),RAW264.7 [23],1.12
same,fold change (FC),RAW264.7 [24],0.98
same,fold change (FC),RAW264.7 [25],1.05
same,inhibition,RAW264.7 [26],Dose-dependent effect
